Results reported in patent publication US12605368B2, “Suppression of neuroinflammation and composition and method therefor” (Kyoto University, priority 2020, dated 2026).

What was measured:
[1] = test system: Nrf2 in Cd11b-positive microglial cells; experiment: Nrf2 immunocytochemistry in glial cells (nuclei of Cd11b-positive cells), with p21 siRNA; type: cell-based, murine; settings: for Nrf2 expression: data not shown; for expression of Nrf2 in Cd11b-positive microglial cells: glial cells, FIGS. 1B and 1C
Description: Cells were plated in 96-well purecoat amine coated plates and treated as desired for each specific experiment. After immunolabeling was complete, automated image acquisition (with twenty-fold magnification of objective lens, 2×2 CCD binning, twenty-five fields per well) and analysis was performed using Opera Phenix (manufactured by PerkinElmer Co., Ltd.) equipped with Harmony software. Image acquisition was performed using a fluorescence microscope (BZ-9000, manufactured by Keyence corporation) or a confocal microscope (SP-8, manufactured by Leica) as well.
(§1) Microglial cell line BV-2 was maintained in high glucose Dulbecco's modified Eagle's medium (DMEM) (Nacalai Tesque) supplemented with 10% fetal bovine serum (Nichirei Bioscienses), 100 U/mL penicillin, and 100 μg/mL streptomycine. Primary hippocampal and cortical neuronal cultures were prepared from embryonic day 18 mice and maintained in Neurobasal medium (Life Technologies) supplemented with 2% B27 supplement, 100 U/mL, penicillin, 100 μg/mL streptomycin, and 0.5 mM L-glutamine. Dopaminergic neuronal cultures were prepared from ventral midbrain of embryonic day 13 mice and maintained in Neurobasal medium (Life Technologies) supplemented with 10% fetal bovine serum, 2% B27 supplement, 10 ng/mL GDNF, 100 U/mL penicillin, and 100 μg/mL streptomycin. For depletion of glial cells, 5 μM cytosine β-D-arabinofuranoside, 10 μM 5-fluorouracil, and 10 μM uridine (all from Sigma-Aldrich) were added at 2-day culture. Mixed glial cultures were obtained from new born murine pups (P1 to P4) and maintained in T75 or T175 flask. Media were changed every 3-4 days until the cells get confluent. Microglia were obtained either by shaking vigorously or Cd11b-positive selection (Invitrogen). For co-culture experiments, murine glial cell cultures were prepared from MGE (Medial Ganglionic Eminence) of embryonic day 13 and cultured in PLL-coated dish. Cultures were passaged twice with trypsin, and used for co-cultured assay with iPSC-derived neurons. 1039A1 iPS cells were established and maintained as described previously (Nakagawa et al., Sci Rep 4, 3594, 2014). Induction of dopaminergic precursor cells was performed as described previously (Doi et al., Stem Cell Reports 2, 337-350, 2014, Kikuchi et al., Nature 548, 592-596, 2017). Briefly, hiPS cells 1039A1 were plated on Laminin511, and differentiated in GMEM medium containing 8% KSR, Y27632 (Wako), A-83-01 (Wako), LDN193178 (STEMGENT). Purmorphamine (Wako), FGF8 (Wako, from day 1 to day 7), and CHIR99021 (Wako, from day 3 to day 12) were added. After cell sorting of Corin+ cells, cells were replated onto low attachment 96-well plates for neurosphere cultures and maintained in neurobasal medium with B27 supplement, 2 mM L-glutamine (Invitrogen), 10 ng/mL GDNF, 200 μM ascorbic acid, 20 ng/mL BDNF (all from Wako), and 400 μM dbcAMP (Sigma-Aldrich) for further 2 weeks. To avoid apoptosis, 30 μM of Y27632 (Wako) was added at the initial plating.
Cells were fixed with 4% paraformaldehyde for 10 minutes, followed by permealization with 0.2% TritonX-100 for 10 minutes. After washing in PBS, cells were blocked in 5% normal donkey serum (Jackson ImmunoResearch Laboratories)/1% BSA (SIGMA A7906)/PBS and then labeled with the primary antibodies. After washing with PBS, primary antibodies were labeled with the corresponding fluorescence-conjugated secondary antibodies. Hoechst 33342 was used to detect nuclei.
Cells were visualized with anti-Nrf2 (pseudo-color), Cd11b (magenta, microglia), and GFAP (green, astrocyte) antibodies. Scale bar=25 μm.
Glial cells were treated with the compounds 1 and 2 for indicated periods and at indicated concentrations.

[2] = test system: microglial cells BV-2; experiment: Western blotting of BV-2 cells treated with compound; type: cell-based; settings: time-dependently and dose-dependently, FIG. 1A
Description: as §1, with “Induction of dopaminergic precursor cells was performed as described previously (Doi et al., Stem Cell Reports 2, 337-350, 2014, Kikuchi et al., Nature 548, 592-596, 2017). Briefly, hiPS cells 1039A1 were plated on Laminin511, and differentiated in GMEM medium containing 8% KSR, Y27632 (Wako), A-83-01 (Wako), LDN193178 (STEMGENT). Purmorphamine (Wako), FGF8 (Wako, from day 1 to day 7), and CHIR99021 (Wako, from day 3 to day 12) were added. After cell sorting of Corin+ cells, cells were replated onto low attachment 96-well plates for neurosphere cultures and maintained in neurobasal medium with B27 supplement, 2 mM L-glutamine (Invitrogen), 10 ng/mL GDNF, 200 μM ascorbic acid, 20 ng/mL BDNF (all from Wako), and 400 μM dbcAMP (Sigma-Aldrich) for further 2 weeks. To avoid apoptosis, 30 μM of Y27632 (Wako) was added at the initial plating.” left out
Total protein was extracted from cell culture samples using RIPA buffer (Wako) containing protease inhibitor cocktail (Nacalai Tesque) and phosphatase inhibitor cocktail (Nacalai Tesque). After 15 minutes of centrifugation at 15,000 rpm at 4° C., supernatants were collected and protein concentrations were measured using a Pierce 660 nm Protein Assay Kit (Thermo Scientific). […]

[3] = test system: microglia; experiment: cytokine production of microglia upon LPS stimulation (qPCR, ELISA), with Nrf2 siRNA; type: cell-based; settings: for up-regulation of proinflammatory cytokine gene expression by LPS stimulation: qPCR and ELISA, FIGS. 2A, 2B; for up-regulation of proinflammatory cytokine gene expression by LPS stimulation / induction of expression of several chemokines and iNOS mRNA: LPS stimulation; for induction of expression of several chemokines and iNOS mRNA: FIG. 2A
Description: Total RNA was extracted with RNeasy kit (Qiagen) followed by cDNA synthesis using iScript (Bio-Rad). Quantitative PCRs were carried out with SYBR green ExTaq (TaKaRa). Primers for genes were designed by using PrimerBank (Wang et al., 2012).
Studies were made on whether the compounds 1 and 2 would suppress cytokine production of microglia.
In the cells treated with Nrf2 siRNA, the suppression of cytokine production was not observed. *P<0.05.

[4] = target: DYRK1A (Homo sapiens, UniProt Q13627); experiment: in vitro kinase activity assay against DYRK1A; type: biochemical
Description: In Vitro Enzyme Activity Assay
The in vitro kinase activity assay was performed as described previously (Ogawa et al., Nat Commun 1, 86, 2010).

[5] = test system: mice injected with LPS; experiment: LPS-induced neuro-inflammation and neurodegeneration in mice; type: in vivo, C57black/6J mice
Description: (§2) C57black/6J mice, 8 to 9-week old, were intraperitoneally injected with LPS (O55:B5) (manufactured by Sigma, L2880) at 1 mg/kg once daily for four days. hiPSC-derived dopaminergic (DA) progenitors were transplanted in striatum of 4-week-old SCID mice. Drug treatment was performed one hour before LPS-injection or iPSC transplantation.
(§3) The compound 1 was initially dissolved in DMSO at a concentration of 100 mg/mL and diluted to desired concentration with 10% Tween 80 (polysorbate 80 (HX2), manufactured by HOF Corporation) in physiological saline solution, and subcutaneously delivered in a volume of 0.05 mL/kg. The compound 2 was suspended in 0.5% carboxymethylcellulose (Nacalai Tesque) and orally administered in a volume of 0.1 mL/kg at desired concentration. Drug-treated animals were anesthetized with isofluorane for blood sampling and subsequently perfused with physiological saline solution. Brain homogenates were prepared using the Beads Crusher μT-12 system (TAITEC) in five-volume of physiological saline solution. Concentration of target compounds or dopamine in serum and brain homogenates were analyzed by LC/MS using an Agilent 6420 Q-TOF mass spectrometer with an Agilent 1290 Nano-flow HPLC system (Agilent Technologies). For measurement of dopamine, 50 mg/mL ascorbic acid was added to avoid oxidization.
Adult mouse brains were perfused with PBS then fixed in 4% paraformaldehyde, and 40-μm sections were cut with a vibratome (Leica) or 20-μm sections with a cryostat (Leica) after equilibrating in 30% sucrose/PBS. After antigen retrieval using HistoOne (Nacalai Tesque), tissues were stained with indicated antibodies.
LPS was intraperitoneally administered to mice to induce neuro-inflammation. Drug (the compound 2) was administered one hour before the LPS injection to the mice. The drug was orally administered at a indicated dose once daily.
Glial activation and cytokine production were evaluated at day 1 after the administration. Degeneration of dopaminergic nerves were evaluated at day 7 and day 14 (FIGS. 4B and 4C). […]
Animals, N=5 to 6, were analyzed regarding each condition. […]

[6] = test system: hiPSC-derived dopaminergic neuron progenitors; experiment: co-culture of hiPSC-derived dopaminergic neuron progenitors with murine glia under H2O2 oxidative stress; type: cell-based, human; settings: H2O2 treatment
Description: Microglial cell line BV-2 was maintained in high glucose Dulbecco's modified Eagle's medium (DMEM) (Nacalai Tesque) supplemented with 10% fetal bovine serum (Nichirei Bioscienses), 100 U/mL penicillin, and 100 μg/mL streptomycine. Primary hippocampal and cortical neuronal cultures were prepared from embryonic day 18 mice and maintained in Neurobasal medium (Life Technologies) supplemented with 2% B27 supplement, 100 U/mL, penicillin, 100 μg/mL streptomycin, and 0.5 mM L-glutamine. Dopaminergic neuronal cultures were prepared from ventral midbrain of embryonic day 13 mice and maintained in Neurobasal medium (Life Technologies) supplemented with 10% fetal bovine serum, 2% B27 supplement, 10 ng/mL GDNF, 100 U/mL penicillin, and 100 μg/mL streptomycin. For depletion of glial cells, 5 μM cytosine β-D-arabinofuranoside, 10 μM 5-fluorouracil, and 10 μM uridine (all from Sigma-Aldrich) were added at 2-day culture. Mixed glial cultures were obtained from new born murine pups (P1 to P4) and maintained in T75 or T175 flask. Media were changed every 3-4 days until the cells get confluent. Microglia were obtained either by shaking vigorously or Cd11b-positive selection (Invitrogen). […]
The neuronal survival was evaluated according to the number of human nuclei by immunostaining (FIGS. 5A and 5B).
Dopaminergic markers of Nurr1 and TH were evaluated by qPCR (FIG. 5C). […]

[7] = test system: iPSC-derived DA neurons transplanted in striatum; experiment: transplantation of hiPSC-derived DA neurons into murine striatum; type: in vivo, SCID mice; settings: four weeks after the transplantation; mice; administered from one hour before surgery for four days
Description: as §2
as §3, with “Brain homogenates were prepared using the Beads Crusher μT-12 system (TAITEC) in five-volume of physiological saline solution.” left out, “For measurement of dopamine, 50 mg/mL ascorbic acid was added to avoid oxidization.” left out
Arrows indicate iPSC-derived cells that are co-labeled by TH or Nurr1 (both are dopaminergic markers). […] The transplanted DA neurons were identified by hNuclei staining and survived iPSC-derived DA neurons were quantified with co-staining of TH and Nurr1 dopaminergic markers. […]

| SMILES | Nrf2 expression ([1]; control siRNA-treated cells) | expression of Nrf2 in Cd11b-positive microglial cells [1] | Nrf2 expression ([1]; p21 siRNA-treated cells) | Nrf2 (Western blotting) [2] | cyclin D1 (Western blotting) [2] | p21 (Western blotting) [2] | up-regulation of proinflammatory cytokine gene expression by LPS stimulation [3] | induction of expression of several chemokines and iNOS mRNA ([3]; qPCR) | suppression of cytokine production ([3]; cells treated with Nrf2 siRNA, qPCR, FIG. 2C) | IC50 [4] [nM] | loss of dopaminergic neurons (TH-positive cells in SNpc) ([5]; LPS-injected mice, day 7 and day 14, FIGS. 4B and 4C) | cytokine production ([5]; qPCR and ELISA, striatum tissues at day 1, oral once daily, FIGS. 4E and 4F) | glial activation ([5]; qPCR on striatum tissues at day 1 from last LPS injection, oral once daily, FIG. 4D) | survival of DA neurons ([6]; co-culture with glia, FIGS. 5A to 5C) | protection of neurons ([6]; without glia) | survival rate of iPSC-derived DA neurons [7] |
| --- | --- | --- | --- | --- | --- | --- | --- | --- | --- | --- | --- | --- | --- | --- | --- | --- |
| c1cncc(-c2ccc3[nH]ncc3c2)c1 [Compound 1] | increased | induced | did not increase | up-regulated | up-regulated | up-regulated | suppressed effectively | also suppressed | not observed | 77 |  |  |  |  |  |  |
| CNC1/C(=C/C(C)=O)Sc2ccc3occc3c21 (stereo not shown) [Compound 2] | increased | induced | did not increase |  |  |  | suppressed effectively | also suppressed |  | 32.9 | rescued | suppressed | suppressed | increased depending on the added amount | did not occur | improves |
